From ChEMBL document CHEMBL4145634, “Discovery of Janus Kinase 2 (JAK2) and Histone Deacetylase (HDAC) Dual Inhibitors as a Novel Strategy for the Combinational Treatment of Leukemia and Invasive Fungal Infections” (J Med Chem, 2018) come the findings set out here.

The subject of series [1] is Candida albicans. Nature of the series: Antifungal activity against FLC resistant Candida albicans 0304103 at 32 ug/ml up to 24 hrs by checkerboard microdilution method. Format: functional, organism-based. A general note: Dilution methods test growth across graded concentrations, often in twofold steps.
Series [2] relates to Candida albicans. Description: microbe, parasite or virus in culture. The following applies: Candida albicans, 0304103, 48 h. Format: functional.
Description: Antifungal activity against FLC resistant Candida albicans 0304103 assessed as fluconazol MIC50 after 48 hrs by checkerboard microdilution method
Series [3] deals with Histone deacetylase 3/NCoR1 (Homo sapiens, UniProt O15379). Description: Inhibition of human recombinant HDAC3/GST-tagged NCOR1 (397 to 503 residues) co-expressed in insect cells using (Ac-Leu-Gly-Lys(Ac)-AMC as substrate preincubated for 5 mins followed by substrate addition and measured after 30 mins by fluorescence assay.
The test system of series [4] is HEL. Description: Antitumor activity in human HEL cells xenografted in SCID mouse assessed as increase in mouse survival at 10 mg/kg, ip qd measured up to 40 days. Format: functional, organism-based.
The target of the next series is T1, Histone deacetylase 8 (Homo sapiens, UniProt Q9BY41).
T1 sequence (Q9BY41 whole entry): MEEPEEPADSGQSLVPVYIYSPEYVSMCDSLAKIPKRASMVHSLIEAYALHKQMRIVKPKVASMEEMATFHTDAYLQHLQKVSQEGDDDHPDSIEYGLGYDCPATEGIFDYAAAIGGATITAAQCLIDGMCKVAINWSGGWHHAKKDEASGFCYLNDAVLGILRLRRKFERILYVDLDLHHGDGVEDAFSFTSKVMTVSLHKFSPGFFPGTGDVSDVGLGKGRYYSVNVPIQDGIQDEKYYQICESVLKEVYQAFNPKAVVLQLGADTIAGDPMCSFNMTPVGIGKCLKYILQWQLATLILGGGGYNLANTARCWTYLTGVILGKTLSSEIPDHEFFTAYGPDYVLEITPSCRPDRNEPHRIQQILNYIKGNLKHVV
Description: Inhibition of full length recombinant C-terminal His tagged human HDAC8 expressed in Baculovirus infected Sf9 cells using Ac-Leu-Gly-Lys(Tfa)-AMC as substrate preincubated for 5 mins followed by substrate addition and measured after 30 mins by fluorescence assay.

In series [5] the test system is Candida albicans. Description: microbe, parasite or virus in culture. Format: functional. The following applies: Candida albicans, 100, 48 h.
Description: Antifungal activity against FLC resistant Candida albicans 100 assessed as fluconazol MIC50 after 48 hrs by checkerboard microdilution method
In series [6] the test system is Candida albicans. Description: Antibiofilm activity against FLC resistant Candida albicans 0304103 assessed as inhibition of biofilm formation pre-incubated with 64 ug/ml FLC for 90 mins followed by further incubation with compound for 24 hrs by XTT reduction assay. Type of series: functional, organism-based.
For series [7], the system named is Candida albicans. Description: Synergistic antifungal activity against FLC resistant Candida albicans 0710922 assessed as FIC index after 48 hrs by checkerboard microdilution method. Format: functional.
Series [8] relates to HEL. Description: Induction of apoptosis in human HEL cells at 10 uM after 48 hrs by Annexin-V-FITC/propidium iodide staining based flow cytometry relative to control. Format: functional. Background: A flow cytometer gives signals particle by particle.
Series [9] relates to HEL. Description: Antiproliferative activity against human HEL cells after 48 hrs by CCK-8 assay. Type of series: functional, cell-based. (Tetrazolium dyes change colour on reduction, which living cells bring about.)
Series [10] concerns the target T2, Tyrosine-protein kinase JAK2 (Homo sapiens, UniProt O60674). Description: Inhibition of JAK2 in human HEL cells assessed as decrease in STAT5 phosphorylation after 24 hrs by Western blot analysis. Type of series: cell-based.
The test system of series [11] is Candida albicans. Nature of the series: microbe, parasite or virus in culture. The following applies: Candida albicans, 0710922, 48 h. Format: functional.
Description: Antifungal activity against FLC resistant Candida albicans 0710922 after 48 hrs in presence of fluconazol by checkerboard microdilution method
Series [12] deals with Candida albicans. Nature of the series: microbe, parasite or virus in culture. The settings on record: Candida albicans, 0304103, 48 h. Type of series: functional. This is another data set of the same source.
Description: Antifungal activity against FLC resistant Candida albicans 0304103 after 48 hrs by checkerboard microdilution method
The subject of series [13] is Candida albicans. Nature of the series: microbe, parasite or virus in culture. Type of series: functional. The following applies: Candida albicans, 0710922, 48 h. The source holds these as a separate data set.
Description: Antifungal activity against FLC resistant Candida albicans 0710922 assessed as fluconazol MIC50 after 48 hrs by checkerboard microdilution method
In series [14] the test system is Mus musculus. Nature of the series: Toxicity in BALB/C nude mouse xenografted with human HEL cells assessed as reduction in body weight at 10 mg/kg, ip bid treated for 21 consecutive days. Type of series: organism-based. The following applies: in vivo.
Series [15] has as its target T2, Tyrosine-protein kinase JAK2. Nature of the series: Inhibition of JAK2 (unknown origin) using FAM-labeled peptide as substrate preincubated for 10 mins followed by substrate addition and measured after 25 mins in presence of ATP.
The next series addresses Histone deacetylase 1 (Homo sapiens, UniProt Q13547). Nature of the series: Inhibition of full length human recombinant HDAC1 expressed in baculovirus expression system using (Ac-Leu-Gly-Lys(Ac)-AMC as substrate preincubated for 5 mins followed by substrate addition and measured after 30 mins by fluorescence assay.
In series [16] the test system is Candida albicans. Nature of the series: Antifungal activity against FLC resistant Candida albicans 100 after 48 hrs by checkerboard microdilution method. Type of series: functional. The following applies: Candida albicans, 100, 48 h.
Series [17] deals with Histone deacetylase (Homo sapiens) (UniProt Q13547+O15379+Q9UBN7+Q92769+Q9UQL6+Q8WUI4+Q9BY41+Q96DB2+P56524+Q9UKV0+Q969S8). Nature of the series: Inhibition of HDAC in human HEL cells assessed as increased in histone H3 acetylation after 24 hrs by Western blot analysis. Format: cell-based.
Series [18] relates to Candida albicans. Nature of the series: Antifungal activity against FLC resistant Candida albicans 100 after 48 hrs in presence of fluconazol by checkerboard microdilution method. Format: functional. The following applies: Candida albicans, 100, 48 h.
For series [19], the system named is Candida albicans. Description: Synergistic antifungal activity against FLC resistant Candida albicans 0304103 assessed as FIC index after 48 hrs by checkerboard microdilution method. Format: functional.
Series [20] concerns the target Tyrosine-protein kinase JAK1 (Homo sapiens, UniProt P23458). Nature of the series: Inhibition of JAK1 (unknown origin) using FAM-labeled peptide as substrate preincubated for 10 mins followed by substrate addition and measured after 25 mins in presence of ATP.
Series [21] concerns Mus musculus. Nature of the series: Toxicity in BALB/C nude mouse xenografted with human HEL cells at 10 mg/kg, ip bid treated for 21 consecutive days. The settings on record: in vivo. Type of series: organism-based.

pIC50: −log10 of the molar value. In brackets after ≈: the same amount, converted by molar mass. Activity calls are given as the source filed them. No cut-off for these calls is given here. Some results are limits rather than exact numbers.

T2 sequence (O60674 whole entry): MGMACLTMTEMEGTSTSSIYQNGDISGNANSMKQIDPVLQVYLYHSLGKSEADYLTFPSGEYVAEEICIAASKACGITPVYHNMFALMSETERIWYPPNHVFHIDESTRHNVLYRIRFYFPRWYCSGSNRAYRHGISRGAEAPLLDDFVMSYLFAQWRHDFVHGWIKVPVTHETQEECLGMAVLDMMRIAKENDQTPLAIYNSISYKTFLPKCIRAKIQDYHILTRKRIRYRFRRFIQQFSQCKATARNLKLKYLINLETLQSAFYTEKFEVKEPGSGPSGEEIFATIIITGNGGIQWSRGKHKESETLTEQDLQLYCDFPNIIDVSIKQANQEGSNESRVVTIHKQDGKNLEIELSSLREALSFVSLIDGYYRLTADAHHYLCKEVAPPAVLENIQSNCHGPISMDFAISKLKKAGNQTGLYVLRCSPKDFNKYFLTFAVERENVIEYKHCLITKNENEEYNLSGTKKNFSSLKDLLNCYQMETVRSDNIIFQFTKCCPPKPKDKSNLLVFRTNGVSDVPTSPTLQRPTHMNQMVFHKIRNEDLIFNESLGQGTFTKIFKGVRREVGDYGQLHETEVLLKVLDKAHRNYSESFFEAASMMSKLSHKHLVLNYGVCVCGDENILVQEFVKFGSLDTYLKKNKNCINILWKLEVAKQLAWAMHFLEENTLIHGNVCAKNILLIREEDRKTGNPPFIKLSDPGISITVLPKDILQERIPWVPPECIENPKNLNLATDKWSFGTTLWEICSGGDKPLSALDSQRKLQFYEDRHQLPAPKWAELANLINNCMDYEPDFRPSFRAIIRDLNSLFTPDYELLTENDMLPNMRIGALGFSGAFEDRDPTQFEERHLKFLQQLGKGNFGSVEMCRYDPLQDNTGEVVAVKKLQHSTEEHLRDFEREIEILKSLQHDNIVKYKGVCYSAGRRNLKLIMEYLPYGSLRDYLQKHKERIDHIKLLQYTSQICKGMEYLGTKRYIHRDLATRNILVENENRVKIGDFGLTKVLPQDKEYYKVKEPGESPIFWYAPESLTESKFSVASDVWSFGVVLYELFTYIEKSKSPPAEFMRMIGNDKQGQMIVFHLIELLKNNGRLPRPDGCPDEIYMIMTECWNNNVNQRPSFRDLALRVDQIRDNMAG
Chain of Histone deacetylase 1 (Q13547 whole entry): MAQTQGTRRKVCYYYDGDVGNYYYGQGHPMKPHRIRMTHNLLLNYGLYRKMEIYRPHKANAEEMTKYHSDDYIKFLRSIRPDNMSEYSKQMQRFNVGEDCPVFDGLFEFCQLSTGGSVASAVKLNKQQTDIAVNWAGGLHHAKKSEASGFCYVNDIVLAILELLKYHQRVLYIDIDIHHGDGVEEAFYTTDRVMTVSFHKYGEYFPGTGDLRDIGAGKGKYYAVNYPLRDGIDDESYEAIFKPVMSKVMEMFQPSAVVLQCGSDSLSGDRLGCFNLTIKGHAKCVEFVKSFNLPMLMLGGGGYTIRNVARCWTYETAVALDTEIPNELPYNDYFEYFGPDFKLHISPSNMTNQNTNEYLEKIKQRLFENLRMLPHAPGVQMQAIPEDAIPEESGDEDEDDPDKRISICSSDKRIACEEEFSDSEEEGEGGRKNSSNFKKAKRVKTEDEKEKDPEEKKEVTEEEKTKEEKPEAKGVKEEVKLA
Chain of Histone deacetylase 3/NCoR1 (O15379 whole entry, the tested form may be a part): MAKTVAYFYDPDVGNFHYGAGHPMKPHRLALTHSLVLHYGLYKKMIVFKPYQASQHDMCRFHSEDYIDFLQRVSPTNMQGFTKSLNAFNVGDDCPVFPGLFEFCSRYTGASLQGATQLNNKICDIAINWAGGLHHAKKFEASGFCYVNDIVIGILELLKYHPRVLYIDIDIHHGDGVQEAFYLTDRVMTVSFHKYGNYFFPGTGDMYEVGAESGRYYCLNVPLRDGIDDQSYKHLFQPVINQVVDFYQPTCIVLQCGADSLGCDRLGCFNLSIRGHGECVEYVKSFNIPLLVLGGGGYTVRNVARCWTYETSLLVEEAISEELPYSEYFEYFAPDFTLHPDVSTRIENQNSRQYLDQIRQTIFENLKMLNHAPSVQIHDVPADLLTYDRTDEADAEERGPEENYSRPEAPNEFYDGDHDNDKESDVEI
Chain of Histone deacetylase 3/NCoR1 (O75376 whole entry, further chain, the tested form may be a part): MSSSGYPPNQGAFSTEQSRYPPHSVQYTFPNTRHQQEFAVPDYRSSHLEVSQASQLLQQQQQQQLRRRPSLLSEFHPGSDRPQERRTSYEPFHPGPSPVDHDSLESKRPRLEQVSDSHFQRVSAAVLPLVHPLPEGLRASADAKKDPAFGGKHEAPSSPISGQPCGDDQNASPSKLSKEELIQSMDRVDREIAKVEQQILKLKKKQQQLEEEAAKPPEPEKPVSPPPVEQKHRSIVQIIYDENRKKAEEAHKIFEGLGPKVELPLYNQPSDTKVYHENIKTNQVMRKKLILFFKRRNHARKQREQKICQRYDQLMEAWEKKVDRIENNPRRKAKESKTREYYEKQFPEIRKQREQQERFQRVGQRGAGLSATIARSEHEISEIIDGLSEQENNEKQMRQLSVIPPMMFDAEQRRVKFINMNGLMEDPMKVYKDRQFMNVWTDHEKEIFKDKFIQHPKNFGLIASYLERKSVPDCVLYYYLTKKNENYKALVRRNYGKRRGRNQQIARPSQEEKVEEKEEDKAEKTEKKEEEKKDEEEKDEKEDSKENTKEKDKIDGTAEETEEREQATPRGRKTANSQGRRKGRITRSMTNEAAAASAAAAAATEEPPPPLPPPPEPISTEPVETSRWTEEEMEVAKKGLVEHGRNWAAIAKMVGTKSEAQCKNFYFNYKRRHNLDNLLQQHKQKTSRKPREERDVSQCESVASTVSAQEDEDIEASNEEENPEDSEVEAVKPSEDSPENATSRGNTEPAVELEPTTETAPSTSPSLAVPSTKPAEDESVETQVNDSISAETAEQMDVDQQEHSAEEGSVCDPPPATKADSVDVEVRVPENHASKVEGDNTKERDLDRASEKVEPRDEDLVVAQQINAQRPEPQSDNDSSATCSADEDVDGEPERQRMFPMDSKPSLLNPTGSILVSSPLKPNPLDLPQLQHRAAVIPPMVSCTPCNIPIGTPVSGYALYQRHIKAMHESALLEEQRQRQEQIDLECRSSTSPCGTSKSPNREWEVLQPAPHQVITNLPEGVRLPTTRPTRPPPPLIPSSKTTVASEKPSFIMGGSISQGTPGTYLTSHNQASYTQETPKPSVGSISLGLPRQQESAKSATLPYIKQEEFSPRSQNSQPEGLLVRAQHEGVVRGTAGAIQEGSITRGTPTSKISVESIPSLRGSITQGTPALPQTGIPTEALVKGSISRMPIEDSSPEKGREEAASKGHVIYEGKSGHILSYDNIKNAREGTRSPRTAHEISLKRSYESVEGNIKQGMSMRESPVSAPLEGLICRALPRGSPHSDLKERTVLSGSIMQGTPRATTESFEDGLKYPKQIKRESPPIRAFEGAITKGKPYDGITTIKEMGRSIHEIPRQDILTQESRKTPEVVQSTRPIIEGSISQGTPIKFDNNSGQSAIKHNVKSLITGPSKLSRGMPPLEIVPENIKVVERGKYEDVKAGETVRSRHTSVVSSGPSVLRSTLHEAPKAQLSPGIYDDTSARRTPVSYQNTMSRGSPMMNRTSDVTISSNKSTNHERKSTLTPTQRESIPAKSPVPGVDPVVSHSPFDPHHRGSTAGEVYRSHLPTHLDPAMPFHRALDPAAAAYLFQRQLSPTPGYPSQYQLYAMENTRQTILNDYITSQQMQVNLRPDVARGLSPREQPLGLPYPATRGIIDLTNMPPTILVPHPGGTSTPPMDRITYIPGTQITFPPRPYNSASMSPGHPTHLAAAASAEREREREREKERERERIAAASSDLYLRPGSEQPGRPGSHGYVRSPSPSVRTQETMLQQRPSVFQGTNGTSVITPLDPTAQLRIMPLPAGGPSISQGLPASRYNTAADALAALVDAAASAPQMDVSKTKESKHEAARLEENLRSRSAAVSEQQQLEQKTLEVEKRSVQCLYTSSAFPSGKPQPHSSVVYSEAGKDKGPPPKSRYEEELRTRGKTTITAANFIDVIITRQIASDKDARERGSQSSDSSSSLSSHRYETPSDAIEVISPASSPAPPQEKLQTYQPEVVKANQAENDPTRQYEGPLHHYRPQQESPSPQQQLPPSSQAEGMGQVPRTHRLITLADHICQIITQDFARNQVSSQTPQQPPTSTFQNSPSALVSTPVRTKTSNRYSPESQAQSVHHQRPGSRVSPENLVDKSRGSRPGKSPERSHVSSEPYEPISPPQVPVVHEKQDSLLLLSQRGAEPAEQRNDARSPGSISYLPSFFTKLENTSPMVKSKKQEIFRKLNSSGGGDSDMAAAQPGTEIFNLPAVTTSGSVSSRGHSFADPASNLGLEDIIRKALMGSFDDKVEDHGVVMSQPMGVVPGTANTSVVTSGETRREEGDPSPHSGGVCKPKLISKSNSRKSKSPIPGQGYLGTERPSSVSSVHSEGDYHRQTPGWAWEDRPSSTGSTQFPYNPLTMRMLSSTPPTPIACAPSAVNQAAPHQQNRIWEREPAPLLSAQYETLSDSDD

The term pIC50 denotes −log10 of the IC50, conventionally taken in molar units. `O=C(NO)c1ccc(-c2ccnc(Nc3ccc(N4CCOCC4)cc3)n2)cc1`: the outcome with Candida albicans [1] was inactive. In addition, the MIC50 against Candida albicans [2] was 0.5 µg/mL (≈ 1.28 µM); against Candida albicans [5] it was 0.5 µg/mL (≈ 1.28 µM); against Candida albicans [11] it was 16 µg/mL (≈ 40.9 µM); in the series on Candida albicans [12], above 64 µg/mL; in the series on Candida albicans [13], 1 µg/mL (≈ 2.55 µM); in the series on Candida albicans [16], above 64 µg/mL. Further, in the series with Candida albicans [18], the MIC50 was 8 µg/mL. The negative logarithm of the IC50 (pIC50) was 7.35 in [3]; 6.22 on Histone deacetylase 8; 5.46 in the series with HEL [9]; 7.07 in [15]; 6.80 on Histone deacetylase 1; 7.16 in series [20]. In addition, the result with HEL [4] was Active. For the same compound, the inhibition entry (in the series with Candida albicans [6]; in series [10]; in series [17]) was “Dose-dependent effect” each time. Also, the entries for the “fractional inhibitory concentration index (FICI)” value with Candida albicans [7] and in the series with Candida albicans [19] were 0.27 and 0.07, respectively. Besides, the Activity was 86.2% in the series on HEL [8], “Non-Toxic” in the series with Mus musculus [14] and “Non-Toxic” in the series with Mus musculus [21].
For `CS(=O)(=O)Nc1ccc(-c2ccnc(Nc3ccc(N4CCC(C(=O)NCCCCCCCC(=O)NO)CC4)cc3)n2)cc1`, the result in the series on Candida albicans [1] was inactive. The MIC50 is 0.25 µg/mL (≈ 0.401 µM) against Candida albicans [2]; 0.5 µg/mL (≈ 0.802 µM) with Candida albicans [5]; 16 µg/mL (≈ 25.7 µM) in the series on Candida albicans [11]; above 64 µg/mL with Candida albicans [12]; 0.25 µg/mL (≈ 0.401 µM) against Candida albicans [13]; above 64 µg/mL in the series with Candida albicans [16]. The MIC50 with Candida albicans [18] is 8 µg/mL. Moreover, the pIC50 was 7.77 in [3]; 6.24 at Histone deacetylase 8; 5.74 with HEL [9]; 8.70 in [15]; 7.74 on Histone deacetylase 1; 7.12 in series [20]. For the same compound, in the series on HEL [4], the outcome was Active. The inhibition result (in the series on Candida albicans [6]; in series [10]; in series [17]) was “Dose-dependent effect” in each case. Also, the “fractional inhibitory concentration index (FICI)” value came to 0.26 in the series with Candida albicans [7] and 0.13 in the series with Candida albicans [19]. For the same compound, the Activity with HEL [8] is 89.2%; in the series on Mus musculus [14] it was “Non-Toxic”; in the series on Mus musculus [21], “Non-Toxic”.
For `CS(=O)(=O)Nc1ccc(-c2ccnc(Nc3ccc(N4CCC(C(=O)Nc5ccc(/C=C/C(=O)NO)cc5)CC4)cc3)n2)cc1`, in the series with Candida albicans [1], the result was inactive. Moreover, the MIC50 was 0.5 µg/mL (≈ 0.797 µM) against Candida albicans [2]; 0.5 µg/mL (≈ 0.797 µM) against Candida albicans [5]; 8 µg/mL (≈ 12.7 µM) in the series with Candida albicans [11]; above 64 µg/mL with Candida albicans [12]; 1 µg/mL (≈ 1.59 µM) against Candida albicans [13]; above 64 µg/mL in the series with Candida albicans [16]. The MIC50 with Candida albicans [18] is 4 µg/mL. Moreover, the pIC50 was 6.63 in [3]; 5.22 on Histone deacetylase 8; 6.47 in the series on HEL [9]; 8.10 in series [15]; 6.60 on Histone deacetylase 1; 6.44 in [20]. Further, the outcome in the series on HEL [4] was Active. Moreover, the inhibition result (in the series with Candida albicans [6]; in [10]; in series [17]) was “Dose-dependent effect” each time. The “fractional inhibitory concentration index (FICI)” value was determined as 0.14 in the series on Candida albicans [7] and 0.07 in the series with Candida albicans [19]. Moreover, the Activity in the series on HEL [8] is given as 70.62%; in the series on Mus musculus [14], “Non-Toxic”; with Mus musculus [21] it was “Non-Toxic”.
